Experimental data published in patent publication US20060089335A1, “Compositions and methods for enhancing cognitive function and synaptic plasticity” (priority 2003, published 2006).
“And” between values parts separate entries of the source, which are not always exact repeats. Equal entries are not always repeated. “Also recorded” adds a separate entry of the source.

Legend:
[1] = tested on: NR1; assay: quantitative Western blotting of hippocampal homogenate; conditions: rat, in vivo
Experimental: (§1) Quantitative Western blotting. Samples of hippocampal homogenate (10 ug/sample) were resolved on polyacrylamide gels, transferred to PVDF, and probed with anti-NR1 (Chemicon), NR2A (Upstate) or NR2B (Santa Cruz Biotech), GluR1 (Chemicon), Synapsin1 (American Qualex), or PSD-95 (Upstate) antibody followed by the appropriate secondary antibody coupled to horseradish peroxidase (1:10,000, Santa Cruz Biotech) in Tris-buffered saline (pH 7.3) containing 5% dry milk and 0.1% Tween (BioRad). Visualization of immunoreactive bands was achieved by enhanced chemiluminescence (Perkin Elmer Biosciences) and captured on autoradiography film (Kodak Scientific). Standard curves, in which the amount of protein was varied systematically, were constructed to establish that we operated within the linear range of the chemiluminescence detection method. In addition, each immunoblot was exposed to autoradiography film multiple times (average 7; minimum 5) for varying duration to make sure we operated in the linear range of the film for each experiment. Digital images, produced by scanning films on a Epson 3200 Scanner (Epson) with Epson Scan Software (Epson), were quantified using GelPro Analyzer 3.1 software. The integrated optical density (IOD) of each immunoreactive band from hippocampal samples relative to baseline measured immediately above and below the band in the same lane, and normalized by the actin or neurofilament band also in the same lane. Group data (eight animals per group) are represented as the mean+/−SEM of the IOD of samples.

[2] = tested on: NR2A; assay: as above; conditions: rat, in vivo
Experimental: as §1

[3] = tested on: synapsin1; assay: as above; conditions: rat, in vivo
Experimental: as §1

[4] = tested on: postsynaptic locations of cultured hippocampal neurons; assay: postsynaptic evoked current response to iontophoretic glutamate (AMPA-R insertion); type: cell-based, rat
From the text: These were generally as described in the preceding examples. Glutamatergic iontophoresis was perfomed as described [Murnick 2000].
Since we wished to correlate the above pre-synaptic findings to the plasticity of single or small clusters of postsynaptic locations, this ruled out traditional double-patch plasticity experiments in which heterogeneous populations of connections are studied. Such studies also usually confound pre-synaptic and postsynaptic effects. For this purpose, we developed a technique of high-temporal and spatial resolution glutamatergic iontophoresis that allows us to stimulate single or small clusters of postsynaptic locations (resolution ˜2 μm, 1 ms; [Murnick 2000]).
To determine whether a decrease in overall activity of a neural network leads to increased plasticity (i.e., an increase in synaptic strength in response to a pattern of stimulation) of postsynaptic locations, we assessed the effect of treatment with Mg^++ on the ability of postsynaptic locations to respond to glutamate. As described above, Mg^++ blocks the NMDA receptor channel at resting membrane potential, so Mg^++ treatment reduces the overall activity level of the neural network. As also described above, increases in postsynaptic intracellular Ca^++ stimulated by activation of NMDA receptors leads to recruitment of AMPA receptors and their insertion into the postsynaptic membrane. […]

[5] = tested on: NMDA receptors at single spine; assay: calcium imaging and NMDA currents at single spines; type: cell-based, rat
[6] = biological target: NMDA receptors (NR2B-containing) (Rattus norvegicus, UniProt P35439+Q00960); assay: evoked NMDA currents ([…]), double-perforated patch; type: cell-based
Experimental: Electrophysiology. Dual whole cell perforated patch clamp recordings were made on two interconnected cultured hippocampal pyramidal neurons. Perforated patch pipettes were front-filled with a solution containing (in mM): CsOH, 127; D-gluconic acid, 127; CsCl, 4; HEPES, 10; NaCl, 8; EGTA, 0.4; pH was adjusted to 7.25 with CsOH, and then back-filled with the same solution containing […] amphotericin B (Sigma, St. Louis, Mo.). Extracellular solution contained (in mM): NaCl, 145; KCl, 3; glucose, 15; HEPES, 10; MgCl2, 0.8-1.2; CaCl2, 1.2; 0.005 glycine (Sigma), 0.05 picrotoxin (Sigma); pH adjusted to 7.4 with NaOH. MgCl2 concentration was matched to its concentration in culture medium. In experiments where effects of drugs on neuronal activity were quantified (FIG. 4D), recordings were done in culture medium (with HEPES replacing bicarbonate/CO2 to maintain pH). All experiments were performed at room temperature. For assaying synaptic connectivity, each neuron was stimulated by 1 ms step depolarization from −70 to +30 mV in voltage-clamp mode. Only neurons with monosynaptic connections were used. […] Recordings with access resistance>20 MΩ or that varied substantially were rejected from analysis.
We hypothesized that one target may be the number and properties of NMDA receptors at individual synapses.

[7] = tested on: GluR1; assay: quantitative Western blotting of hippocampal homogenate; type: in vivo, rat; conditions: rat, in vivo, 6 mg/kg/day
Experimental: as §1

[8] = tested on: NR2B; assay: as above; type: in vivo, rat; conditions: rat, in vivo
Experimental: as §1

NMDA receptors (NR2B-containing), sequence (Q00960 27-1482, other chains not shown): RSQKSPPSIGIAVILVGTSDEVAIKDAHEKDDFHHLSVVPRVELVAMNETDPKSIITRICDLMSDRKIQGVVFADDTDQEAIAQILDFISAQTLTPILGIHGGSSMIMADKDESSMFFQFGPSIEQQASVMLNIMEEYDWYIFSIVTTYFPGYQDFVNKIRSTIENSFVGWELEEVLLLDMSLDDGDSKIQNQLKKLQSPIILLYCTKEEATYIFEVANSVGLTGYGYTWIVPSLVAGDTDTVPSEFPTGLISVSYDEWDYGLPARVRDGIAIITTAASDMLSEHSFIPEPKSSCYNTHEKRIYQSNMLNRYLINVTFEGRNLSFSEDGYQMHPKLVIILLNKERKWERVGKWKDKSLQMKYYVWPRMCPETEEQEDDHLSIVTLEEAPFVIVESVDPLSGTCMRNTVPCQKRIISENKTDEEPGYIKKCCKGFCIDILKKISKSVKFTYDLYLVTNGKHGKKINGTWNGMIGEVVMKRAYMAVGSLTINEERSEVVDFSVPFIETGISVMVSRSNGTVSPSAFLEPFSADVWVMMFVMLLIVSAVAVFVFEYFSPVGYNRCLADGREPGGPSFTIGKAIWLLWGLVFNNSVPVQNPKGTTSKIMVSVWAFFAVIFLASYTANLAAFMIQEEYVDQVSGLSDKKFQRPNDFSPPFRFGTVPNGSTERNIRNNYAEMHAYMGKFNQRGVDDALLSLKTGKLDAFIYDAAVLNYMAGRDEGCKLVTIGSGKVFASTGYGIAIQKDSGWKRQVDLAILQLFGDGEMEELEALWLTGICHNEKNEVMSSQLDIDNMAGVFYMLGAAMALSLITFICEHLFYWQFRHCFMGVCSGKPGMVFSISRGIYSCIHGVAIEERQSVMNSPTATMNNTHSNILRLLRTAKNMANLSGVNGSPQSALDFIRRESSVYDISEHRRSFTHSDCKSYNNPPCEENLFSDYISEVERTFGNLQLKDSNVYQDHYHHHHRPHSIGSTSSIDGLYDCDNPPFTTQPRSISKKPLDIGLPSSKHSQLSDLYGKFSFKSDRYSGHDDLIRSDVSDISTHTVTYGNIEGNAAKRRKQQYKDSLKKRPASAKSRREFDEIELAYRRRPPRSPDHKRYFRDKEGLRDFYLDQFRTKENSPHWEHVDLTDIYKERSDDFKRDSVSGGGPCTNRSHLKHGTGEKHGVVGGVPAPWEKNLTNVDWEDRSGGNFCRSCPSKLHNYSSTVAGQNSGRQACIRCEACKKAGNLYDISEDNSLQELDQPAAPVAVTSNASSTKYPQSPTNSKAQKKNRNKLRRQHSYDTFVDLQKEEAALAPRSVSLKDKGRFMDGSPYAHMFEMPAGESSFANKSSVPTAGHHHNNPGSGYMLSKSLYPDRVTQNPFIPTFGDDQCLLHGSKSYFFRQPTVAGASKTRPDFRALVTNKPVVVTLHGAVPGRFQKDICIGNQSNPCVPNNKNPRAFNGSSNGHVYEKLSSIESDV

## [Mg+2] [Mg^++]
[1]
  change of NR1: no significant changes
[2]
  change of NR2A: no significant changes
[3]
  change of synapsin1: no significant changes
[4]
  postsynaptic evoked current response to glutamate (AMPA-R insertion): showed significant levels of AMPA-R insertion; also recorded: increased current amplitude over time
[5]
  reduction of Ca^2+ influx (ΔF/F): 57±5% and 54±7%
  reduction of NMDA currents (EPSCNMDA amplitude): 54±7% and 57±5%
[6]
  N/A ratio (GNMDA/GAMPA): increased significantly
  change in EPSCNMDA decay: 2 fold
  ifenprodil-sensitivity of EPSCNMDA in treated versus control cultures: much higher than in the controls
  increase of quantal charge transfer through NMDARs (QNMDA): 2.4 fold
[7]
  increase in amount of GluR1: approximately 60%
[8]
  increase in levels of NR2B protein: two-fold increase
[8]; 6 mg/kg/day
  increase in amount of NR2B: approximately 60%
